Data published in patent US20240285571A1, “METHODS OF TREATING BONE INFECTIONS” (MICROBION CORPORATION, priority 2020, published 2024).
Read-outs that look alike come from different tables or passages of the source. One block for each compound: values may come before it.

Tests used:
Achromobacter spp. = assay: MIC against CF isolates (Example 7, Table 18); format: cell-based; settings: strain AX4, A. xylosoxidans
E. coli ATCC 25922 = settings: per CLSI M100-S24 or provided by Microbion; cited from earlier work
K. pneumoniae = assay: Broth microdilution MIC (Example 5); format: cell-based, Klebsiella pneumoniae; settings: Klebsiella pneumoniae
Protocol: (§1) Test and Comparator Agents: The test agents were stored at room temperature until assayed. […] The stock solutions were allowed to stand for at least 1 hr prior to use to auto-sterilize.
(§2) TestMedia: Test media were prepared and stored in accordance with guidelines from CLSI (4, 6, 7).
Broth Microdilution MC Testing (Aerobic Bacteria and Yeast): The broth microdilution assay method employed for the susceptibility testing of aerobic bacteria (excluding N. gonorrhoeae which was evaluated by agar dilution) and yeast essentially followed the procedures described by CLSI (3, 4, 7, 8) and employed automated liquid handlers to conduct serial dilutions and liquid transfers. […] These would become the ‘mother plates’ from which ‘daughter’ or test plates would be prepared. The drugs (300 μL at 40× the desired top concentration in the test plates) were dispensed into the appropriate well in Column 1 of the mother plates. The Biomek 2000 was used to make serial two-fold dilutions through Column 11 in the “mother plate”. The wells of Column 12 contained no drug and ultimately served as the organism growth control wells.
The daughter plates were prepared using the Biomek FX which transferred 5 μL of drug solution from each well of a mother plate to the corresponding well of the correct daughter plate in a single step.
A standardized inoculum of each organism was prepared per CLSI methods (3, 7). Isolated colonies of each test isolate were picked from the primary plate and a suspension was prepared to equal a 0.5 McFarland turbidity standard. Standardized suspensions were then diluted […] (1:100 for yeast, 1:20 for bacteria). After dilution, the inoculum suspensions were then transferred to compartments of sterile reservoirs divided by length (Beckman Coulter), and the Biomek 2000 was used to inoculate all plates. Daughter plates were placed on the Biomek 2000 in reverse orientation so that plates were inoculated from low to high drug concentration.
The Biomek 2000 delivered 10 μL of standardized inoculum into each well of the appropriate daughter plate for an additional 1:20 dilution.
Plates were stacked 4 high, covered with a lid on the top plate, placed into plastic bags, and incubated at 35° C. for approximately 24-48 hr for all yeast isolates and 16-24 hr for aerobic bacteria. Plates were viewed from the bottom using a plate viewer. […] MIC endpoints for the test agents and control compounds were read per CLSI criteria (3, 7).

E. cloacae = assay: Broth microdilution MIC (Example 5); format: cell-based, Enterobacter cloacae; settings: Enterobacter cloacae, ATCCBAA2468
Protocol: as §1, §2
Broth Microdilution MC Testing (Aerobic Bacteria and Yeast): The broth microdilution assay method employed for the susceptibility testing of aerobic bacteria (excluding N. gonorrhoeae which was evaluated by agar dilution) and yeast essentially followed the procedures described by CLSI (3, 4, 7, 8) and employed automated liquid handlers to conduct serial dilutions and liquid transfers. […] These would become the ‘mother plates’ from which ‘daughter’ or test plates would be prepared. The drugs (300 μL at 40× the desired top concentration in the test plates) were dispensed into the appropriate well in Column 1 of the mother plates. The Biomek 2000 was used to make serial two-fold dilutions through Column 11 in the “mother plate”. […]
(§3) Plates were stacked 4 high, covered with a lid on the top plate, placed into plastic bags, and incubated at 35° C. for approximately 24-48 hr for all yeast isolates and 16-24 hr for aerobic bacteria. […] MIC endpoints for the test agents and control compounds were read per CLSI criteria (3, 7).

S. agalactiae = assay: Broth microdilution MIC (Example 5); format: cell-based; settings: Streptococcus agalactiae
Procedure, shortened: (§4)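 MICs were determined by CLSI broth microdilution with serial two-fold drug dilutions in CLSI-prepared media. Inocula were set to 0.5 McFarland, diluted, and added to the plates. Bacteria were incubated at 35° C. for 16-24 hr, and endpoints were read visually per CLSI criteria.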

S. pyogenes = assay: Broth microdilution MIC (Example 5); format: cell-based; settings: Streptococcus pyogenes
Procedure, shortened: as §4

Enterobacteriaceae = assay: MIC summary across Enterobacteriaceae (Example 5); format: cell-based, E. coli, K. pneumoniae, Enterobacter cloacae; settings: all evaluated Enterobacteriaceae isolates (Table 3)
Protocol: (§5) Test and Comparator Agents: The test agents were stored at room temperature until assayed. All test agents were suspended and diluted in 100% dimethylsulfoxide (DMSO), and were ultimately tested at a final concentration of 0.06-64 μg/mL. The stock solutions were allowed to stand for at least 1 hr prior to use to auto-sterilize.
(§6) TestMedia: Test media were prepared and stored in accordance with guidelines from CLSI (4, 6, 7). […] Neisseria gonorrhoeae were evaluated by agar dilution using agar consisting of GC medium base (BD; Lot No. 4274618) supplemented with 1% IsoVitaleX (BD; Lot No. 5246843).
(§7) Broth Microdilution MC Testing (Aerobic Bacteria and Yeast): The broth microdilution assay method employed for the susceptibility testing of aerobic bacteria (excluding N. gonorrhoeae which was evaluated by agar dilution) and yeast essentially followed the procedures described by CLSI (3, 4, 7, 8) and employed automated liquid handlers to conduct serial dilutions and liquid transfers. […]
as §3

[1] = tested on: beta-hemolytic streptococci; assay: MIC summary, beta-hemolytic streptococci (Example 5); format: cell-based, S. pyogenes, S. agalactiae; settings: beta-hemolytic streptococci (Table 6); read-out: MIC values across isolates
Protocol: as §5, §6, §7, §3

[2] = tested on: MABSC / M. abscessus biofilms; assay: Activity against biofilms (Example 7); format: cell-based, Mycobacterium abscessus complex; settings: AMT0130-8 MABSC CF-isolate
[3] = tested on: Achromobacter spp. biofilm; assay: Activity against biofilms (Example 7); format: cell-based; settings: tested up to 250 μg/mL
S. pneumoniae = S. pneumoniae MMX 6837 (ATCC 49619); cited from earlier work

- MIC (Achromobacter spp.): > 64 µg/mL
SMILES: NCC[C@H](O)C(=O)N[C@@H]1C[C@H](N)[C@@H](O[C@H]2O[C@H](CN)[C@@H](O)[C@H](O)[C@H]2O)[C@H](O)[C@H]1O[C@H]1O[C@H](CO)[C@@H](O)[C@H](N)[C@H]1O [Amikacin]
- MIC, acceptable range (E. coli ATCC 25922): 0.5 to 4 µg/mL
- MIC, expected results (E. coli ATCC 25922): 1 to 2 µg/mL

SMILES: OCC(S)CS.[Bi] (centres unmarked) [MB-2B, bismuth-2,3-dimercaptopropanol]
- MIC (K. pneumoniae; K. pneumoniae MMX 4622, KPC-2): 16 µg/mL
- MIC (K. pneumoniae; K. pneumoniae MMX 4623, KPC-2): 32 µg/mL
- MIC (K. pneumoniae; K. pneumoniae MMX 4653, KPC-3): 16 µg/mL
- MIC (K. pneumoniae; K. pneumoniae MMX 4683, KPC-2): 8 µg/mL
- MIC (K. pneumoniae; K. pneumoniae MMX 4684, ESBL, read-out: MIC): 32 µg/mL
- MIC (K. pneumoniae; K. pneumoniae MMX 4685, ESBL, read-out: MIC): 8 µg/mL
- MIC (K. pneumoniae; K. pneumoniae MMX 4694, KPC-3): 8 µg/mL
- MIC (K. pneumoniae; K. pneumoniae MMX 5979, NDM-1): 16 µg/mL
- MIC (E. cloacae): 32 µg/mL
- MIC (S. agalactiae; S. agalactiae MMX 3741, ERYR CCR): 4 µg/mL
- MIC (S. agalactiae; S. agalactiae MMX 3743, ERYR CCR): 4 µg/mL
- MIC (S. agalactiae; S. agalactiae MMX 4077, ERYR CCR): 4 µg/mL
- MIC (S. agalactiae; S. agalactiae MMX 4079, ERYR CCR PenR MEMR): 8 µg/mL
- MIC (S. pyogenes; S. pyogenes MMX 3068, EryR): 2 µg/mL
- MIC (S. pyogenes; S. pyogenes MMX 3820, ERYR CLIR): 1 µg/mL
- MIC (S. pyogenes; S. pyogenes MMX 3919, ERYR): 0.25 µg/mL
- MIC (S. pyogenes; S. pyogenes MMX 3929, ERYR CCR): 1 µg/mL
- MIC (S. pyogenes; S. pyogenes MMX 5091, ERYR CCR): 1 µg/mL
- MIC (Enterobacteriaceae): 2 to 32 µg/mL
- MIC [1]: 0.25 to 8 µg/mL

SMILES: CC(S)C(C)S.[Bi] (centres unmarked) [MB-6, bismuth-2,3-butanedithiol]
- Reductions in biofilm cell viability [2]: only very modest reductions
- Reduction in viable biofilm cells [3]: 5 log

SMILES: C[C@@H](O)[C@H]1C(=O)N2C(C(=O)O)=C(S[C@@H]3CN[C@H](C(=O)N(C)C)C3)[C@H](C)[C@H]12 [Meropenem]
- CLSI QC range of MIC (S. pneumoniae): (0.06-0.25) μg/mL
